The values that follow are results of earlier work, collected in patent US20250262218A1, “COMPOSITIONS, FORMULATIONS AND METHODS FOR STIMULATING RESPIRATION” (Auros Pharma LLC, priority 2024, published 2025).

Molecules are shown by their SMILES. Like-named read-outs stand apart in the source and are kept apart here.

For the compound `CCN1CC(CCN2CCOCC2)C(c2ccccc2)(c2ccccc2)C1=O` (stereo not shown) [doxapram, 1-ethyl-4-(2-morpholinoethyl)-3,3-diphenyl-2-pyrrolidinone], the solubility result is reported as “sparingly soluble” (in alcohol), “practically insoluble” (in ether) and “soluble” (in water). Besides, the stability result (light and air) was “stable in light and air”.
